Results on 14 compounds are retold here after US8309554B2 (priority 2008, dated 2012).

One assay concerns HT29. Put plainly: cells. In kind it is cell-based. Conditions: for IC50: Homo sapiens, HT-29, 2 h.
A further assay concerns H460. Description: cells. In kind it is cell-based. Conditions: for IC50: Homo sapiens.
Setting [1] is: NCI-H460, 2 h, read-out: 2 hr Air H460 IC50.
The mark [2] stands for this setting: NCI-H460, 2 h, read-out: 2 hr N2 H460 IC50.
The mark [3] stands for this setting: NCI-H460, read-out: 2 h Air H460 monolayer IC50.
[4] abbreviates: NCI-H460, read-out: 2 h N2 H460 monolayer IC50.

Read-outs that look alike come from different tables or passages of the source.

By IC50 is commonly meant the concentration at which inhibition is half-maximal. With `COCC(=O)N(C)c1ccc(CC(c2ccsc2[N+](=O)[O-])S(=O)(=O)Oc2ccc(N(CCCl)CCCl)cc2)cn1` (centres unmarked) [TH-1478, 3-(4-(N,N-bis-(2-Chloroethyl)amino)phenoxysulfonyl-(2-(N-methoxyacetyl-N-methylamino)pyridin-5-yl-methyl))methyl-2-nitrothiophene], in the assay with HT29, the “HT29 HCR: Air/N2” value stood at 11. Further, the IC50 with HT29 (read-out: 2 hr Air HT29 IC50) came out at 220 µM; with HT29 (read-out: 2 hr N2 HT29 IC50), 20 µM; in the assay with H460 (setting [1]), 120 µM; with H460 (setting [2]), 0.4 µM. Moreover, in the assay with H460, the “H460 HCR: Air/N2” value worked out at 300.

As to `CC(C)Nc1ccc(CC(c2ccsc2[N+](=O)[O-])S(=O)(=O)Oc2ccc(N(CCCl)CCCl)cc2)cn1` (centres unmarked) [TH-1328], the “HT29 HCR: Air/N2” value in the assay on HT29 was 3.3. In addition, the IC50 came out at 151 µM in the assay on HT29 (read-out: 2 hr Air HT29 IC50), 46 µM with HT29 (read-out: 2 hr N2 HT29 IC50), 261 µM in the assay on H460 (setting [1]) and 1.4 µM with H460 (setting [2]). The “H460 HCR: Air/N2” value in the assay on H460 amounted to 187.

Take `O=[N+]([O-])c1sccc1CS(=O)(=O)Oc1ccc(N(CCCl)CCCl)c(F)c1` [TH-1192, 3-((3-Fluoro-4-(N,N-bis-(2-chloroethyl)amino)phenoxy)sulfonyl)methyl-2-nitrothiophene]: in the assay with HT29, the “HT29 HCR: Air/N2” value is recorded as 20. In addition, the IC50 turned out to be 162 µM in the assay with HT29 (read-out: 2 hr Air HT29 IC50), 8 µM with HT29 (read-out: 2 hr N2 HT29 IC50), 59.2 µM in the assay with H460 (setting [1]) and 1.5 µM with H460 (setting [2]). The “H460 HCR: Air/N2” value in the assay on H460 is on record as 39.

In the case of `COCC(=O)Nc1ccc(CC(c2ccsc2[N+](=O)[O-])S(=O)(=O)Oc2ccc(N(CCCl)CCCl)cc2)cc1` (centres unmarked) [TH-1479], in the assay on HT29, the “HT29 HCR: Air/N2” value came to 2.7. Also, the IC50 was above 300 µM in the assay with HT29 (read-out: 2 hr Air HT29 IC50), 110 µM in the assay on HT29 (read-out: 2 hr N2 HT29 IC50), 260 µM with H460 (setting [1]) and 0.8 µM in the assay on H460 (setting [2]). The “H460 HCR: Air/N2” value with H460 amounted to 325.

Turning to `C[C@H](O)C(=O)Nc1ccc(CC(c2ccsc2[N+](=O)[O-])S(=O)(=O)Oc2ccc(N(CCCl)CCCl)cc2)cn1` (some centres unmarked) [TH-1465, 3-(4-(N,N-bis-(2-Chloroethyl)amino)phenoxysulfonyl-(2-(lactic acylamino)pyridine-5-yl-methyl))methyl-2-nitrothiophene], in the assay with HT29, the “HT29 HCR: Air/N2” value is 30. The IC50 with HT29 (read-out: 2 hr Air HT29 IC50) was 210 µM; in the assay on HT29 (read-out: 2 hr N2 HT29 IC50) it was 7 µM; with H460 (setting [1]), 40 µM; in the assay on H460 (setting [2]) it was 0.8 µM. Besides, the “H460 HCR: Air/N2” value with H460 is 50.

In the case of `O=[N+]([O-])c1sccc1C(Cc1ccc(O[C@H]2CCCC[C@@H]2O)nc1)S(=O)(=O)Oc1ccc(N(CCCl)CCCl)cc1` (some centres unmarked) [TH-1487], the “HT29 HCR: Air/N2” value with HT29 is 1. For the same compound, the IC50 turned out to be 240 µM with HT29 (read-out: 2 hr Air HT29 IC50), 280 µM with HT29 (read-out: 2 hr N2 HT29 IC50), 51 µM in the assay on H460 (setting [1]) and 0.8 µM in the assay with H460 (setting [2]). In the assay with H460, the “H460 HCR: Air/N2” value came out at 64.

For `O=C(CO)Nc1cccc(OS(=O)(=O)CCC(c2ccsc2[N+](=O)[O-])S(=O)(=O)Oc2ccc(N(CCCl)CCCl)cc2)c1` (centres unmarked) [TH-1414], the “HT29 HCR: Air/N2” value with HT29 was found to be 7. The IC50 came out at 740 µM with HT29 (read-out: 2 hr Air HT29 IC50), 100 µM in the assay with HT29 (read-out: 2 hr N2 HT29 IC50), 135 µM in the assay with H460 (setting [1]) and 2.5 µM in the assay on H460 (setting [2]). In addition, the “H460 HCR: Air/N2” value in the assay on H460 was determined as 54.

For `CN(c1cc(F)c(N(CCCl)CCCl)c(F)c1)S(=O)(=O)Cn1ccnc1[N+](=O)[O-]` [TH-1135], the IC50 in the assay on H460 (setting [3]) was found to be 9.2 µM; with H460 (setting [4]), 3.4 µM.

As for `C[C@H](O)C(=O)Nc1ccc(CC(c2ccsc2[N+](=O)[O-])S(=O)(=O)Oc2ccc(N(CCCl)CCCl)cc2)cc1` (some centres unmarked) [TH-1468], the “H460 HCR: Air/N2” value in the assay on H460 is reported as 75. For the same compound, the IC50 in the assay on H460 (setting [1]) amounted to 30 µM; with H460 (setting [2]) it was 0.4 µM.

In the case of `CN(c1cc(F)c(N(CCCl)CCCl)c(F)c1)S(=O)(=O)C(C)(C)n1ccnc1[N+](=O)[O-]` [TH-1136], the IC50 is 5.1 µM in the assay on H460 (setting [3]) and 5 µM with H460 (setting [4]).

As to `Cc1ccc(S(=O)(=O)NCC(c2ccsc2[N+](=O)[O-])S(=O)(=O)Oc2ccc(N(CCCl)CCCl)cc2)cc1` (centres unmarked) [TH-1312], in the assay on H460, the “H460 HCR: Air/N2” value was found to be 31. For the same compound, the IC50 stood at 122 µM in the assay on H460 (setting [1]) and 3.9 µM in the assay with H460 (setting [2]).

As for `CN(c1ccc(N(CCBr)CCBr)cc1)S(=O)(=O)Cn1ccnc1[N+](=O)[O-]` [TH-1141], the figures for the IC50 in the assay on H460 (setting [3]) and in the assay on H460 (setting [4]) were 0.5 µM and 0.1 µM, respectively.

`COCC(=O)Nc1ccc(CC(c2ccsc2[N+](=O)[O-])S(=O)(=O)Oc2ccc(N(CCCl)CCCl)cc2)cn1` (centres unmarked) [TH-1477]: the “H460 HCR: Air/N2” value in the assay with H460 was found to be 43. Further, the IC50 in the assay on H460 (setting [1]) was 13 µM; with H460 (setting [2]) it was 0.3 µM.

As for `Cc1cc(OS(=O)(=O)Cn2ccnc2[N+](=O)[O-])ccc1N(CCCl)CCCl` [TH-1106], the IC50 stood at 0.9 µM with H460 (setting [3]) and 0.2 µM in the assay with H460 (setting [4]).
